Marks after values point to notes of the source that are not given here.
Key:
PC12 cells = assay: PC12 cell serum withdrawal model, MTS cell survival assay; assay type: cell-based
Description: Serum withdrawal is a cytotoxic environmental challenge that results in cell death in cultured cell lines as well as in primary cells of various tissue origins, including nerve cells. In particular, pheochromocytoma (PC) 12 cells have been widely employed as an in vitro neuronal cell model for a wide variety of neurodegenerative and cell death related disorders (Muriel, et al, Mitochondrial free calcium levels (Rhod-2 fluorescence) and ultrastructural alterations in neuronally differentiated PC12 cells during ceramide-dependent cell death, J. Comp. Neurol., 2000, 426(2), 297-315; Dermitzaki, et al, Opioids transiently prevent activation of apoptotic mechanisms following short periods of serum withdrawal, J. Neurochem., 2000, 74(3), 960-969; Carlile, et al, Reduced apoptosis after nerve growth factor and serum withdrawal: conversion of tetrameric glyceraldehyde-3-phosphate dehydrogenase to a dimer, Mol. Pharmacol., 2000, 57(1), 2-12). PC12 cells were cultured in sterile media (RPMI 1640) supplemented with 10% heat-inactivated horse serum and 5% fetal bovine serum (FBS). The culture medium also contained Penicillin-Streptomycin-Neomycin antibiotic (50 µg, 50 µg, 100 µg, respectively). Medium was exchanged every other day and the cells were passed in log phase near confluence.
The control cells were cultured in regular media without any treatment. An enantiomer of Formula 7 or Formula 8 (10 µM) was mixed well in the medium and then applied to the cells. For the 2 day assay, an enantiomer of Formula 7 or Formula 8 (10 µM) was only applied to the cells once at the time of serum withdrawal. For the 7 day assay, an enantiomer of Formula 7 or Formula 8 (10. mu.M) was applied to the cells at the time of serum withdrawal and every 48 hr thereafter when cells were changed with fresh new serum-free medium. In the serum withdrawal group, the cells were cultured in serum-free medium with no additional enantiomer of Formula 7 or Formula 8. Cell survival was determined by the 3-(4,5-dimethylthiazol-2-yl)-5-(3-[…])-2-(4-sulfophenyl)-2H-tetrazolium inner salt (MTS) assay at 2 or 7 days after serum withdrawal.
At the end of the experiment, cells were washed with fresh medium and incubated with MTS solution in a humidified 37° C. with 5% CO2 incubator for 1.5 hr. After the incubation period, the cells were immediately analyzed using a Softmax program (Molecular Devices). […] The assay is based on the cellular conversion of the tetrazolium salt, MTS, into a formazan that is soluble in tissue culture medium and measured directly at 490 nm in 96-well assay plates. The absorbance is directly proportional to the number of living cells in culture. The arbitrary absorbance reading in control cells is expressed as 100% survival rate.

[1] = tested on: transient cerebral ischemia middle cerebral artery occlusion (MCAO) rat model; assay: Transient cerebral ischemia middle cerebral artery occlusion (MCAO) rat model, infarct volume; assay type: in vivo; settings: N 12; for Mean Infarct Volume ± S.E.M., Striatum: vehicle 79.4; for Mean Infarct Volume ± S.E.M., Cortex: vehicle 275.5; for Mean Infarct Volume ± S.E.M., Total Volume: vehicle 354.9
Method: The enantiomer of Formula 7 (test compound) was investigated in the transient cerebral ischemia middle cerebral artery occlusion (MCAO) rat model (as described in Nagasawa H. and Kogure K., Stroke, 1989, 20, 1037; and, Zea Longa E., Weinstein P. R., Carlson S, and Cummins R., Stroke, 1989, 20, 84) using male Wistar rats at 10 and 100 mg/kg (i.v.). MK 801 (Dizocilpine maleate; CAS Registry number 77086-22-7, a commercially available neuroprotectant compound) was used as a positive control (3 mg/kg, i.p.).
Rats (n=12) were randomly allocated to one of four experimental groups and were anesthetized. Blood flow from the internal carotid artery, anterior cerebral artery and posterior cerebral artery into the middle cerebral artery was blocked by this procedure. One hour after blockage, animals were treated over a 1 hour period with vehicle (administered i.v. over the one hour period), control (administered as a single i.p. dose at the start of the one hour period) and two doses of the enantiomer of Formula 7 (administered i.v. over the one hour period). Two hours after blockage, reperfusion was performed.
The animals were sacrificed and […] coronal sections of each brain were prepared. One in every forty sections (i.e. every […]) from the front to the occipital cortex was used to quantify the extent of the cerebral lesion. Slides were prepared using sections stained (according to the Nissl procedure) with cresyl violet and were examined under a light microscope.
Regional ischemic surface areas in the coronal sections of individual rats were determined according to the presence of cells with morphological changes. The areas of neuronal injury or infarction were measured and then added. The cortex and striatum volume were calculated for each animal (total ischemic surface area×0.8 mm (thickness)).
The mean volumes (.+−.S.E.M.) for each animal randomly assigned to the four experimental groups were compared using one-way ANOVA (one way ANOVA is a statistical method which compares 3 or more unmatched groups) followed by Dunnett's t-test (both methods incorporated in Statview 512+software, BarinPower, Calabasas, Calif., USA).

[2] = tested on: rats subjected to li-pilo SE; assay: Latency to and frequency of spontaneous seizures by video recording, lithium-pilocarpine model (Example 2); assay type: in vivo, rat; settings: pilo-TC90 (90 mg/kg), Non epileptic subgroup (n = 5), no seizure over 150 days post-SE
[3] = Formula 7 10 mg/kg i.v. over 1 hour
[4] = Formula 7 100 mg/kg i.v. over 1 hour

With NC(=O)OC[C@@H](O)c1ccccc1Cl [Formula 7] the “2 Day Survival Rate” value (PC12 cells; 10 µM applied once at serum withdrawal, MTS assay 2 days after serum withdrawal, control 100, serum-free 49.6) was 69.4 ± 1.7^1%, the “7 Day Survival Rate” value (PC12 cells; 10 µM at serum withdrawal and every 48 hr, MTS assay 7 days after serum withdrawal, control 100, serum-free 23.8) was 79.9 ± 4.0^2% and the “Mean Infarct Volume ± S.E.M., Striatum” value [1, 3] was 75.9 ± 2.6 mm^3. The “Mean Infarct Volume ± S.E.M., Cortex” value [1, 3] was 201.0 ± 23.9 mm^3, the “Mean Infarct Volume ± S.E.M., Total Volume” value [1, 3] was 276.9 ± 25.4 mm^3 and the “Mean Infarct Volume ± S.E.M., Striatum” value [1, 4] was 63.0 ± 5.9^2 mm^3. The “Mean Infarct Volume ± S.E.M., Cortex” value [1, 4] was 98.8 ± 29.5^1 mm^3, the “Mean Infarct Volume ± S.E.M., Total Volume” value [1, 4] was 161.9 ± 34.3^1 mm^3 and the “Latency to the first spontaneous seizure” value [2] was 150** °° days.

Reference: patent US20090137652A1, “METHODS FOR NEUROPROTECTION” (priority 2005, published 2009)
